≈ marks a conversion by molar mass, not a printed value.
What was measured:
Type in all cases: cell-based
[1] = tested on: S. aureus A798; assay: MIC by microdilution (NCCLS) against S. aureus A798; conditions: pH 7.2-7.3; for MIC: Staphylococcus aureus, A798, cation-adjusted Mueller-Hinton Broth
Experimental: (§1) These assays have been performed following the description given in “Methods for dilution Antimicrobial Susceptibility Tests for Bacteria that Grow Aerobically, 4th ed.; Approved standard: NCCLS Document M7-A4; National Committee for Clinical Laboratory Standards Villanova, Pa., USA, 1997”. Minimal inhibitory concentrations (MICs; mg/L) were determined in cation-adjusted Mueller-Hinton Broth (BBL) by a microdilution method following NCCLS guidelines (National Committee for Clinical Laboratory Standards. Methods for Dilution Antimicrobial Susceptibility). The pH of the test medium was 7.2-7.3.

[2] = tested on: M. catarrhalis A894; assay: MIC by microdilution (NCCLS) against M. catarrhalis A894; conditions: pH 7.2-7.3; for MIC: Moraxella catarrhalis, A894, cation-adjusted Mueller-Hinton Broth
Experimental: as §1

[3] = tested on: S. Pneumoniae 49619; assay: MIC by microdilution (NCCLS) against S. Pneumoniae 49619; conditions: cation-adjusted Mueller-Hinton Broth, pH 7.2-7.3; for MIC: Streptococcus pneumoniae
Experimental: as §1

[4] = cation-adjusted Mueller-Hinton Broth

Compound: COc1ccc2nccc(C(O)CN3CCC(C(=O)Nc4ccc5c(c4)NC(=O)CS5)CC3)c2c1 (racemic) [Example 12, (2RS)-1-[2-hydroxy-2-(6-methoxy-quinolin-4-yl)-ethyl]-piperidine-4-carboxylic acid (3-oxo-3,4-dihydro-2H-benzo[1,4]thiazin-6-yl)-amide]
- MIC [1]: 1 µg/mL (≈ 2.03 µM)
- MIC [2]: 0.25 µg/mL (≈ 0.508 µM)
- MIC [3]: 2 µg/mL (≈ 4.06 µM)

Compound: COc1ccc2nccc(CCC3(O)CCC(C(=O)N(C)c4ccc5c(c4)OCCO5)CC3)c2n1 (stereo not drawn) [Example 39, 4-hydroxy-4-[2-(6-methoxy-[1,5]naphthyridin-4-yl)-ethyl]-cyclohexanecarboxylic acid (2,3-dihydro-benzo[1,4]dioxin-6-yl)-methyl-amide]
- MIC [1]: 1 µg/mL (≈ 2.09 µM)
- MIC [2]: 8 µg/mL (≈ 16.8 µM)
- MIC [3]: 8 µg/mL (≈ 16.8 µM)

Compound: COc1cnc2cccc(CCC3(O)CCC(C(=O)N/C=C/c4cc(F)ccc4F)CC3)c2c1 (stereo not drawn) [Example 26, trans-4-hydroxy-4-[2-(3-methoxy-quinolin-5-yl)-ethyl]-cyclohexanecarboxylic acid [2-(2,5-difluoro-phenyl)-vinyl]-amide]
- MIC S. aureus A798 [1, 4]: <0.03 µg/mL
- MIC M. catarrhalis A894 [2, 4]: <0.03 µg/mL
- MIC S. Pneumoniae 49619 [3]: 0.125 µg/mL (≈ 0.268 µM)

Compound: COc1ccc2nccc(OC[C@H]3CC[C@H](C(=O)Nc4ccc5c(c4)OCCO5)CC3)c2c1 [Example 1, trans-4-(6-methoxy-quinolin-4-yloxymethyl)-cyclohexanecarboxylic acid (2,3-dihydro-benzo[1,4]dioxin-6-yl)-amide]
- MIC [1]: 0.06 µg/mL (≈ 0.134 µM)
- MIC [2]: 0.5 µg/mL (≈ 1.11 µM)
- MIC [3]: 0.06 µg/mL (≈ 0.134 µM)

Reference: patent publication US7888359B2, “Cyclohexyl or piperidinyl carboxamide antibiotic derivatives” (Actelion Pharmaceutical Ltd., priority 2006, dated 2011)
